Experimental data as given in patent publication US20040157793A1, “Modified nucleosides as antiviral agents” (priority 2002, published 2004).
Read-outs that look alike come from different tables or passages of the source.

How the values were obtained:
HepG2 cells [1] = assay: Cell growth of HepG2 cells during 14-day treatment; assay type: cell-based, human; conditions: HepG2, up to 100 μM, 14 days
Procedure: (§1) In addition, these compounds were also tested in the HepG2 cell line (14-day treatment, 100 μM) for their ability to reduce mitochondrial DNA levels (using a newly designed normalized Q-PCR protocol as described in Stuyver, L. J., et al. 2002, Antimicrob. Agents Chemother., 46:3854-3860) or lactic acid production.

[2] = system: HepG2 cells (mitochondrial COXII DNA); conditions: for effect on mitochondrial DNA levels (in words): HepG2, up to 100 μM
HepG2 cells [3] = assay: Lactic acid production in HepG2 cells; assay type: cell-based, human; conditions: HepG2, up to 100 μM, 14 days
Procedure: as §1

[4] = system: HBV (3TC-resistant virus: rtV204) in HepAD79 cells; assay: microbe, parasite or virus in culture; assay type: cell-based; conditions: for HepAD79 log10 inhibition at 10 μM / EC90: HepAD79 cells, 13-day incubation; for HepAD79 log10 inhibition at 10 μM: HBV DNA in supernatant; for EC90: read-out: HepAD79 EC90; for FI EC90 AD79/EC90 AD38: fold increase, EC90 HepAD79 over EC90 HepAD38
Procedure: (§2) HepAD38 and HepAD79 cells were seeded at 5×10^4 cells/well in a 96-well plate in seeding medium (DMEM/F12+10% FBS, 50 μg/ml penicillin, 50 μg/ml streptomycin, 100 μg/ml kanamycin, 400 μg/ml G418, and 0.3 μg/ml tetracycline) and incubated for 2 days at 37° C. in a 5% CO2, humidified atmosphere. The seeding media was removed, and cells were washed 3 times with PBS. Cells were then incubated with 200 μL assay medium (DMEM/F12+10% FBS+P/S/K) containing either (i) no compound, (ii) test compound, or (iii) control drugs at 10 μM. After an additional 5-day (HepAD38) or 13-day incubation (HepAD79, with renewal of the culture media at day 7), the cell supernatant was collected and stored at −70° C. until HBV DNA was quantified.
(§3) HBV DNA was extracted from supernatant using QiaAmp DNA blood Mini kit (Qiagen) and nucleic acids eluted in 200 μl Viral DNA was detected by quantitative PCR (Q-PCR). The TaqMan probe and primers were designed using the Primer Express software (Applied Biosystems) and cover highly conserved sequences complementary to the DNA sequences present in HBsAg. A total of 5 μl DNA was amplified using reagents and conditions as described by the manufacturer (Applied Biosystems).
Subsequently, the time course of viral induction in HepAD79 cells over a 13-day incubation period was investigated.
Therefore, the DNA extracted from the cell supernatant was also amplified by Q-PCR for the presence of cellular DNA (the rRNA gene).

[5] = system: HBV (wild-type virus: rtM204) in HepAD38 cells; assay: Suppression of HBV production in HepAD38 cells, viral DNA in supernatant by Q-PCR; assay type: cell-based; conditions: HepAD38 cells, 5-day incubation; for HepAD38 log10 inhibition at 10 μM: HBV DNA in supernatant; for EC90: concentration reducing viral load by 90%, unit printed in text only, read-out: HepAD38 EC90
From the text: The HepAD38 (wild-type virus: rtM204) and HepAD79 (3TC-resistant virus: rtV204) (Stuyver L. J. et al. 2001, Hepatol., 33:751-757) cell lines replicate HBV under conditions that can be regulated with tetracycline (King R. W. et al. 2000, Methods in Molecular Medicine, Vol 24: Antiviral Methods and Protocols, 43-50 (eds: D. Kinchington & R. F. Schinazi), Humana Press Inc, Totowa, N.J.); Ladner, et al. 1997, Antimicrob. Agents Chemother., 41:1715-1720; Ladner S. K., et al. 1998a. Antivir. Chem. Chemother., 9:65-72; Ladner S. K., et al. 1998b. Antimicrob. Agents Chemother., 42:2128-31). In the presence of this drug, the cell supernatant is virtually free of viral DNA, but upon the removal of tetracycline from the culture medium, these cells secrete virus-like particle into the supernatant.
as §2
as §3, with “Biosystems). […]” for “Biosystems).”

[6] = HepG2, 14-day treatment, 100 μM

| SMILES | effect on cell growth (in words) (HepG2 cells [1]) | Average ΔCt ± s.d. MitCoxII ([2]; HepG2, 14-day treatment, 1 μM) | Average ΔCt ± s.d. rDNA ([2]; HepG2, 14-day treatment, 1 μM) | Average ΔΔCt ± s.d. MitCOXII-rDNA ([2]; HepG2, 14-day treatment, 1 μM) | Fold difference in COXII DNA levels normalized for rDNA (range) relative to control ([2]; HepG2, 14-day treatment, 1 μM) | Average ΔCt ± s.d. MitCoxII ([2]; HepG2, 14-day treatment, 10 μM) | Average ΔCt ± s.d. rDNA ([2]; HepG2, 14-day treatment, 10 μM) | Average ΔΔCt ± s.d. MitCOXII-rDNA ([2]; HepG2, 14-day treatment, 10 μM) | Fold difference in COXII DNA levels normalized for rDNA (range) relative to control ([2]; HepG2, 14-day treatment, 10 μM) | Average ΔCt ± s.d. MitCoxII [2, 6] | Average ΔCt ± s.d. rDNA [2, 6] | Average ΔΔCt ± s.d. MitCOXII-rDNA [2, 6] | Fold difference in COXII DNA levels normalized for rDNA (range) relative to control [2, 6] | effect on mitochondrial DNA levels (in words) ([2]; 14 days) | total lactic acid production (in words) (HepG2 cells [3]) | HepAD79 log10 inhibition at 10 μM [4] [log10] | EC90 [4] [nM] | FI EC90 AD79/EC90 AD38 [4] | HepAD38 log10 inhibition at 10 μM [5] [log10] | EC90 [5] [nM] | also measured |
| --- | --- | --- | --- | --- | --- | --- | --- | --- | --- | --- | --- | --- | --- | --- | --- | --- | --- | --- | --- | --- | --- |
| Nc1ccn([C@@H]2C=C(F)[C@H](CO)O2)c(=O)n1 [L-3′F-D4C, β-L-3′-fluoro-2′,3′--didehydro-2′, 3′--dideoxycytadine] | did not show any reduction in cell growth | 0.13 ± 0.16 | 0.08 ± 0.25 | 0.05 ± 0.26 | 0.96 (1.16-0.80) | 0.39 ± 0.15 | −0.11 ± 0.38 | 0.49 ± 0.51 | 0.71 (1.02-0.50) | 0.20 ± 0.20 | −0.28 ± 0.14 | 0.48 ± 0.13 | 0.72 (0.79-0.65) | no reductions in mitochondrial DNA levels | no increase in total lactic acid production | 1.65 ± 0.24 | 2300 | 10.5 | 2.68 ± 0.44 | 220 ± 150 | EC90 ([5]; listed as L-3F-D4C): 250 nM |
| Nc1nc(=O)n([C@@H]2C=C(F)[C@H](CO)O2)cc1F [L-3′F-D4FC, β-L-3′-fluoro-2′,3′-didehydro-2′,3′-dideoxy-5-fluorocytidine] | did not show any reduction in cell growth | 0.00 ± 0.13 | −0.46 ± 0.06 | 0.35 ± 0.01 | 0.78 (0.79-0.78) | 0.23 ± 0.13 | −0.10 ± 0.06 | 0.33 ± 0.10 | 0.80 (0.85-0.74) | −0.52 ± 0.28 | −0.94 ± 0.16 | 0.42 ± 0.13 | 0.75 (0.82-0.68) | no reductions in mitochondrial DNA levels | no increase in total lactic acid production | 1.56 ± 0.40 | 3100 | 14.1 | 2.8 ± 0.09 | 220 ± 140 | EC90 ([5]; listed as L-3F-D4FC): 250 nM |
| Nc1nc(=O)n([C@@H]2CC[C@H](CO)O2)cc1F [L-FddC] | – | – | – | – | – | – | – | – | – | – | – | – | – | – | – | 0.02 | > 10000 | – | 2.03 | 310 | – |
| Nc1ccn([C@@H]2C=C[C@H](CO)O2)c(=O)n1 [L-d4C] | reduced the cell growth significantly | – | – | – | – | 2.72 ± 0.37 | 3.96 ± 0.87 | −1.24 ± 0.50 | 2.36 (1.67-3.35) | 6.82 ± 0.33 | 10.14 ± 0.77 | −3.32 ± 0.75 | 9.99 (5.92-16.85) | did not specifically affect the mitochondrial DNA levels | – | 1.54 ± 0.38 | 960 | 16 | 2.79 ± 0.08 | 60 ± 20 | – |
| Nc1ccn([C@H]2CC[C@@H](CO)O2)c(=O)n1 [ddC, 2′,3′-dideoxycytidine] | – | – | – | – | – | 7.70 ± 0.08 | 0.92 ± 0.52 | – | – | – | – | – | – | – | – | – | – | – | – | – | Average ΔΔCt ± s.d. MitCOXII-rDNA ([2]; human, 14 days, 10 μM): 6.78 ± 0.56; Fold difference in COXII DNA levels normalized for rDNA (range) relative to control ([2]; human, 14 days, 10 μM): 0.01 (0.01-0.01) |
